This note sets out measurements from publication PMC11087268, “A folate inhibitor exploits metabolic differences in Pseudomonas aeruginosa for narrow-spectrum targeting” (Nature Microbiology, 2024).

As usually defined, the MIC is the lowest concentration that inhibits growth of the organism. The term IC50 denotes the concentration that inhibits the measured activity by half. A word on the MTD: it is the highest dose tested that stayed within the study's limit of toxicity.

The structures appear in SMILES notation. ≈ marks a conversion by molar mass, not a printed value.

Data set [1] relates to Pseudomonas aeruginosa ATTC 27853. The experiment in a line: MIC against P. aeruginosa ATTC 27853 in LB broth. In kind it is cell-based. The note with it: ATTC27853, 16 h. The method, then: Overnight cultures were diluted 1:150 in LB broth and added to a 96-well plate. Antibiotics were serially diluted 1:2 and added to columns of the 96-well plate and grown at 37 °C with continuous shaking. Cell growth was measured using optical density at 600 nm (OD600). MIC assays were performed in either BioTek Synergy HT or Tecan InfiniteM200 Pro microplate readers.

The subject of data set [2] is WI-38 (embryonic lung tissue). The experiment in a line: Mammalian cell cytotoxicity, WI-38. It is filed as cell-based, human.
A short description of the next data set: Maximum tolerated dose. The note with it: female, mouse, in vivo, sc; CD-1 mice, subcutaneous. The text has this: For P. aeruginosa thigh infection model and maximum tolerated dose (MTD) studies, care and handling of female 5–6-week-old CD-1 conformed to Institutional Animal Care and Use Committee (IACUC) policies as carried out at the University of North Texas Health Science Center (Fort Worth, Texas) under UNTHSC IACUC-approved protocol nos. IACUC-2021-0003 and IACUC-2020-0039. Rodents were fed either base chow (Envigo) or base diet supplemented with 1.8 g kg^−1 thymidine (Sigma T9250) starting at 2 days before infection. All procedures were conducted in accordance with the UNTHSC IACUC-approved protocol. Animals were housed in rooms undergoing 10–15 air changes per hour. Air provided to the animal rooms was controlled for temperature and humidity and is fully monitored 24 h a day. Air pressure was balanced according to room use. Lighting was controlled in individual rooms by automatic timers with a standard 12 h on, 12 h off cycle.
MTD was determined by administration of compounds at increasing dosage until the maximum dose before adverse reactions were observed. Doses were increased in a stepwise manner from 1 mg kg^−1 to 5, 10, 25 and 50 mg kg^−1. […] The maximum tolerated dose of fluorofolin was determined to be 25 mg kg^−1 administered subcutaneously. MTD was evaluated by the UNTHSC.

Another data set relates to E. coli lptD4213. The experiment in a line: Growth of E. coli lptd4213 with fluorofolin (with or without SMX) and thymidine or TMI. It is filed as cell-based, Escherichia coli. The note with it: fluorofolin 50 μg/mL, 0.3 mM thymidine. The method, then:
Where listed, growth media were prepared according manufacturer recommendations: LB broth and LB broth supplemented with 0.3 mM thymine (BD Biosciences 244610, Alfa Aesar A15879), 0.3 mM methionine (Sigma-Aldrich M9625), 0.3 mM inosine (EMD Millipore 4060), cation-adjusted Mueller–Hinton II broth (CAMHB) (BD 212322) or 0.3 mM thymidine (Sigma-Aldrich T1895), Gutnick minimal media (1.0 g l^−1 K2SO4, 13.5 g l^−1 K2HPO4, 4.7 g l^−1 KH2PO4, 0.1 g l^−1 MgSO4·7H2O, 10 mM NH4Cl as a nitrogen source and 0.4% w/v glucose as a carbon source)[65].
Extended Data Fig. 3 TMI supplementation can also rescue other species from fluorofolin DHFR inhibition. […] (f) P. aeruginosa PA14 or E. coli lptd4213 treated with fluorofolin 50 μg/mL in the presence or absence of 0.3 mM thymidine. (g) E. coli lptd4213 treated with fluorofolin 50 μg/mL and SMX (78.1 μg/mL) in the presence or absence of 0.3 mM thymidine or 0.3 mM TMI supplementation, Curves represent average optical at 600 nm (OD600) of 2 biological replicates. Means are shown. Source data

For the compound `Nc1nc(N)c2c(ccc3c2ccn3Cc2ccnc(F)c2)n1` [fluorofolin], in data set [1], the MIC came to 25 µg/mL. Also, the IC50 in data set [2] (Homo sapiens, WI-38, 72 h, CyQUANT, read-out: IC50 Fluorofolin) was 14.4 µg/mL (≈ 46.8 µM). Moreover, in data set [2] (WI-38 cells), the “increase in IC50 compared with IRS-16” value is on record as 58.5 fold. Further, in the data set “Maximum tolerated dose”, the maximum tolerated dose (MTD) is 25 mg/kg. Also, the “rescue of growth inhibition by thymidine supplementation alone” value with E. coli lptD4213 was “Rescue from fluorofolin inhibition was also shown”.
